Measured values: EP3570868B1, “[…] ANTIMICROBIAL PEPTIDES AND THEIR APPLICATIONS FOR THE TREATMENT AND PREVENTION OF MUSCU[…]” (Ustav Organicke Chemie a Biochemie AV CR, v.v.i., priority 2017, dated 2018)
Square brackets hold non-standard residues; d marks the D form. Peptide text beside a SMILES is read from it. βAla = NCCC(=O)O

Experiments:
[1] = test system: Candida albicans yeast (clinical isolate Olomouc); assay: Comparison of two similar halictin peptides for biofilm formation on the implant surface (yeast pipetted into a hole between implants); format: cell-based; conditions: 3.5 mg peptide in 100 mg powder cement component; two days; implant without peptide 1.8 × 10^3
Method: The experiment was performed under similar conditions as described in Example 5. Here, 100 mg of the powder cement component was used to prepare a paste, which was mixed with in 3.5 mg of peptide XIII and subsequently 52 µl of liquid component. The resulting paste was thoroughly mixed and then pressed into a hole prepared in the spongy part of the bone. To a next hole in the spongy part of the same bone a paste was pressed, containing comparative peptide Hal 2/4 (3.5 mg) with the sequence H-[…]NH2, which was also prepared from 100 mg of the powder component and 52 µl of the liquid component. The third hole was filled with paste without peptide prepared from the same amount of components. The Candida albicans yeast (clinical isolate Olomouc), grown in YPG, was pipetted in the hole excavated between implants equidistant (approximately 1 cm) from each. From there, the yeast penetrated through the bone tissue and was deposited on the implant with consequent formation of biofilms.
Then the implants in closed tubes with 0.4 ml of saline were treated ultrasonically four times for three minutes with occasional shaking. This way, microbial biofilm on the surface of the implant was disrupted and microbes loosed into the physiological saline. The resulting suspension was then diluted in a decimal dilution series for culturing on agar. […]

[2] = test system: P.a. (clin. isolate Liberec); format: cell-based, Pseudomonas aeruginosa; conditions: 37° C for 20 h
Method: (§1) Gram-positive bacteria (Bacillus subtilis, Staphylococcus aureus, Staphylococcus epidermidis and Enterococcus faecalis), Gram-negative bacteria (Escherichia coli and Pseudomonas aeruginosa) and the yeast (Candida albicans) were grown to exponential phase and then were diluted with fresh medium. BHI medium (Oxoid, Great Britain) was used for Enterococcus faecalis; YPD medium containing yeast extract, peptone and glucose was used for Candida albicans and LB medium (Sigma, Czech Republic) was used for the remaining microorganisms. Then the microorganisms were added to the solutions of the tested antimicrobial peptides in LB medium in multi-well plates, so that the final peptide concentration it the wells was in the range of 0.5 to 100 µmοl.1^-1. The plates were incubated at 37° C for 20 h while being continuously shaken in a Bioscreen C (Oy Growth Curves AB Ltd., Helsinki, Finland). Absorbance was measured at 540 nm every 15 min. Antimicrobial activity (Table 2) was determined as a quantitative minimum inhibitory concentration (MIC) by observing bacterial growth in the presence of different concentrations of tested peptides. In the experiments, ca 10^5 CFU of bacteria or candida per well were used. Tetracycline in a concentration range of 0.5 - 100 µmol.1^-1 was used as a standard.
(§2) Clinical isolates of bacteria were obtained from University Hospital in Motol, Prague, Czech Republic and from Liberec Regional Hospital, Czech Republic. Methicillin resistant Staphylococcus aureus (MRSA) 6271 and Pseudomonas aeruginosa 5482 were from the Czech National Collection of Type Cultures, the National Institute of Public Health, Prague, Czech Republic. Other bacteria were from the Czech Collection of Microorganisms, Brno, Czech Republic. Candida albicans came from the Faculty of Medicine, Palacky University, Olomouc, Czech Republic. Candida tropicalis ATCC 750 and Candida glabrata DSY 565 were obtained from the Institute of Physiology, Academy of Sciences of the Czech Republic.

P.a. 5482 = format: cell-based, Pseudomonas aeruginosa; conditions: 37° C for 20 h
Method: as §1, §2

[3] = test system: MRSA (clin. isolate Motol); format: cell-based, Staphylococcus aureus; conditions: 37° C for 20 h
Method: as §1, §2

[4] = test system: MRSA (clin. isolate Liberec); format: cell-based, Staphylococcus aureus; conditions: 37° C for 20 h
Method: as §1, §2

MRSA 6271 = format: cell-based, Staphylococcus aureus; conditions: 37° C for 20 h
Method: as §1, §2

[5] = test system: MRSA (clin. isolate Liberec); assay: Biofilm formation on the surface of a bone cement implant in femur heads; format: cell-based, Staphylococcus aureus; conditions: two days, cement without peptide 7,0x10^6
Method: The resulting elastic paste is placed into a 2 ml plastic syringe (without needle) and pressed into the infected holes in the spongy part of the bone, where it polymerizes and hardens. For comparison, other similarly infected holes are filled with cement containing only an antibiotic or antimycotic agent. For comparison, a Vancogenx® cement (Tecresa S. p. A., Italy) is used, made from a mixture of a powdered polymer component containing vancomycin and gentamicin. The mixture in an amount of 125 mg is mixed with liquid monomer (50-60 µl) and then pressed into the openings as described above. In another embodiment, the cements are applied to uninfected holes, allowed to harden, and then microbes are pipetted into the hole excavated between implants. From there they penetrate through bone tissue and settle on the implants with consequent formation of biofilms.
After two days, implants are removed with metal spikes and tweezers, mechanically cleaned from debris of bone tissue, and washed four times with physiological saline (0.5 ml) in plastic tubes to remove any residual planktonic microbes or bone cells from their surface. The implants in closed tubes with 0.4 ml saline are then sonicated four times for 3 min with occasional shaking. The of microbial biofilm on the surface of the implant is thus disrupted and microbes are loosed into the physiological saline. […]

[6] = test system: S. aureus (clin. isolate Liberec); assay: Induced osteomyelitis model in femur heads: effect of peptides released from carrier on infection in the bone graft; format: cell-based; conditions: ChronOS (200 mg), 10 mg, two days
Method: (§3) 3-4 holes of a diameter of 5 mm and a depth of 10 mm are drilled with a surgical spoon into a femur head under sterile conditions (spongy part of the bone in the resection site). Thereafter, this bone graft is put into a beaker of appropriate size and lined with sterile gauze squares. The gauze is moistened with sterile physiological saline to prevent drying of the bone. Then, suspension of multiplied microbes in an appropriate medium (50-100 µl) at a concentration of 10^7 to 10^9 CFU is sequentially applied to the prepared holes in the bone graft and allowed to incubate for 1-2 days. […] Beaker with the infected bone graft is covered with a sterile Petri dish. During the experiment, induced osteomyelitis models are kept protected from light at room temperature.
(§4) After the incubation, the infected holes in the bone are filled with a mixture of the local carrier, and a peptide selected from the series of peptides of formulae I to XIII or their specific enantiomers (Figure 1). For comparison, one of the holes is filled with the local carrier without peptide, or the carrier filled with antibiotic (vancomycin or gentamicin). A commercially available two-component material supplied by Synthes (Synthes GmbH, Switzerland) under the name ChronOS Inject was used as the carrier. Its solid component comprises a mixture of calcium phosphates CaHPO4.2H2O and Ca3(PO4)2 and additives, the liquid component is 0.5% (vol./vol.) solution of hyaluronic acid.
(§5) After two days, the filling is thoroughly removed with a surgical spoon and empty holes are wiped with moistened sterile cotton swab, which is then extracted into 400 µl physiological saline. The extract is diluted in a tenfold serial dilution and each diluted suspension is cultured on agar in Petri dishes; the culture is evaluated on the following day. […] The result of the peptide effect is also compared with the result of the effect of antibiotics. In some cases, microbiological examination of the bone tissue taken with a surgical spoon from a deeper area of the drilled holes is performed. […] Table 3. Evaluation of the effect of antimicrobial peptides released from the carrier on an infection in the bone graft. Effect of antimicrobial activity is expressed in the number of CFU (colony-forming units) in the infected hole after swabbing.

[7] = test system: S.e. (clin. isolate Motol); format: cell-based, Staphylococcus epidermidis; conditions: 37° C for 20 h
Method: as §1, §2

[8] = test system: E.f. (clin. isolate Motol); format: cell-based, Enterococcus faecalis; conditions: 37° C for 20 h
Method: as §1, §2

human red blood cells = assay: Determination of haemolytic activity; format: cell-based; conditions: human red blood cells (5% v/v), 1 h at 37 °C; concentration for lysis of 50% of erythrocytes
Method: The peptides in the concentrations 2-400 µmol.1^-1 were incubated with the suspension of human red blood cells (5% v/v) for 1 h at 37 °C in a physiological solution at a final volume of 0.2 ml. The samples were then centrifuged for 5 min at 250 g. The absorbance of the supernatant was determined at 540 nm. 0.2% (v/v) TRITON X100 was used as a control for 100% haemolysis. Haemolytic activity is expressed as the peptide concentration required for lysis of 50% of human erythrocytes in the assay (LC50). Table 2. Antimicrobial and haemolytic activity of I up to XIII peptides and tetracycline.

Escherichia coli = format: cell-based; conditions: E.c.; 37° C for 20 h
Method: as §1, §2

Candida albicans = format: cell-based; conditions: C.a.; 37° C for 20 h
Method: as §1, §2

Bacillus subtilis = format: cell-based; conditions: B.s.; 37° C for 20 h
Method: as §1, §2

[9] = test system: Staphylococcus aureus (MRSA 6271); assay: Eradication of the infection inside the spongy bone tissue (bone grafts, peptide in carrier); format: cell-based; conditions: carrier (200 mg) with peptide VIII (10 mg), two days
Method: Experiments was carried out similarly as described above using two graft bones. The suspension of Staphylococcus aureus (MRSA 6271) in LB medium (50 - 100 µl) in the concentration 10^9 CFU/ml was pipetted into two holes drilled in each bone graft. On the next day the one hole in one bone graft was filled with the carrier (200 mg) blended with peptide VIII (10 mg). The second hole was filled with carrier alone (200 mg). In the second bone graft the two holes were filled identically.
The experiments were evaluated after two days of the treatment by the comparison of the number of bacterial colonies (CFU/ml) related to the infected hole in which the peptide was released from the carrier and acted against the infection, against the number of the colonies related to the infected hole which was filled only with the carrier alone. The results of these two independent experiments which are summarized in Table 5 clearly show high efficacy of the peptide VIII. Table 5. Effect of peptide VIII on the eradication of the infection inside the spongy bone tissue Carried out in two independent experiments.

[10] = test system: S. epidermidis (clin. isolate Motol); assay: Induced osteomyelitis model in femur heads: effect of peptides released from carrier on infection in the bone graft; format: cell-based; conditions: ChronOS (300 mg); 10 mg, separate holes; two days; carrier without peptide 1,2x10^5
Method: as §3, §4, §5

[11] = test system: MRSA (clin. isolate Motol); assay: as above; format: cell-based, Staphylococcus aureus; conditions: ChronOS (200 mg); 10 mg; two days; carrier without peptide 4,8x10^6
Method: as §3, §4, §5

P. aeruginosa 5482 = assay: as above; format: cell-based; conditions: ChronOS (200 mg); V (9 mg); two days; carrier without peptide 1,0x10^9
Method: as §3, §4, §5

| Structure (SMILES) | number of colonies from the surface of the implant [1] | Antimicrobial activity MIC [2] | Antimicrobial activity MIC (P.a. 5482) | Antimicrobial activity MIC [3] | Antimicrobial activity MIC [4] | Antimicrobial activity MIC (MRSA 6271) | CFU/implant [5] [CFU/implant] | CFU/hole ([6]; carrier without peptide 2,0x10^6) | Antimicrobial activity MIC [7] | Antimicrobial activity MIC [8] | Hemolytic activity LC50 (human red blood cells) | Antimicrobial activity MIC (Escherichia coli) | Antimicrobial activity MIC (Candida albicans) | Antimicrobial activity MIC (Bacillus subtilis) | CFU/hole ([9]; first experiment, no peptide 1.2x10^7) [CFU/ hole] | CFU/hole ([9]; second experiment, no peptide 3.6x10^6) | CFU/hole [10] [in all cases CFU/hole] | CFU/hole ([6]; separate holes, carrier without peptide 3,9x10^6) [CFU/hole] | CFU/hole [11] | CFU/hole (P. aeruginosa 5482) |
| --- | --- | --- | --- | --- | --- | --- | --- | --- | --- | --- | --- | --- | --- | --- | --- | --- | --- | --- | --- | --- |
| CC[C@H](C)[C@H](NC(=O)[C@H](CCCCN)NC(=O)[C@H](CCCCN)NC(=O)[C@H](CC(C)C)NC(=O)[C@H](CC(C)C)NC(=O)[C@H](CO)NC(=O)[C@H](CCSC)NC(=O)[C@H](Cc1c[nH]c2ccccc12)NC(=O)[C@@H](N)CCCCN)C(=O)N[C@@H](CC(C)C)C(=O)N[C@@H](CCCCN)C(N)=O [Hal 4/2, reference compound] (H-KWMSLLKKILK-NH2) | 2.8 × 10^2 CFU/implant |  |  |  |  |  |  |  |  |  |  |  |  |  |  |  |  |  |  |  |
| CC[C@H](C)[C@H](NC(=O)[C@H](CCCCN)NC(=O)[C@H](CCCCN)NC(=O)[C@H](CC(C)C)NC(=O)[C@H](CCSC)NC(=O)[C@H](CCCCN)NC(=O)[C@H](CCSC)NC(=O)[C@H](Cc1c[nH]c2ccccc12)NC(=O)[C@H](CCCCN)NC(=O)CN)C(=O)N[C@@H](CC(C)C)C(=O)N[C@@H](CCCCN)C(N)=O [XI] (H-GKWMKMLKKILK-NH2) |  | 12,7 µmol.l^-1 | 5,3 µmol.l^-1 | 20,0 µmol.l^-1 | 10,0 µmol.l^-1 | 20,0 µmol.l^-1 | 0 | 2,5 x10^3 CFU/hole | 3,2 µmol.l^-1 | >100 µmol/L | >>200 µmol.l^-1 | 20,0 µmol.l^-1 | 12,7 µmol.l^-1 | 2,5 µmol.l^-1 |  |  |  |  |  |  |
| CC[C@H](C)[C@H](NC(=O)[C@H](CCCCN)NC(=O)[C@H](CCCCN)NC(=O)[C@H](CC(C)C)NC(=O)[C@H](CC(C)C)NC(=O)[C@H](CCCCN)NC(=O)[C@@H](NC(=O)[C@H](Cc1c[nH]c2ccccc12)NC(=O)[C@H](CCCCN)NC(=O)CN)C(C)C)C(=O)N[C@@H](CC(C)C)C(=O)N[C@@H](CCCCN)C(N)=O [Peptide VIII] (H-GKWVKLLKKILK-NH2) |  | 12,7 µmol.l^-1 | 3,0 µmol.l^-1 | 10,0 µmol.l^-1 | 5,0 µmol.l^-1 | 9,0 µmol.l^-1 |  |  | 2,5 µmol.l^-1 | >100 µmol/L | >400 µmol/L | 6,3 µmol.l^-1 | 6,3 µmol.l^-1 | 2,0 µmol.l^-1 | 0 | 4.8x10^2 CFU/ hole | 0 | 0 |  |  |
| CC[C@H](C)[C@H](NC(=O)[C@H](CCCCN)NC(=O)[C@H](CCCCN)NC(=O)[C@H](CC(C)C)NC(=O)[C@H](CC(C)C)NC(=O)[C@H](CCCCN)NC(=O)[C@H](CCSC)NC(=O)[C@H](Cc1c[nH]c2ccccc12)NC(=O)[C@H](CCCCN)NC(=O)CCN)C(=O)N[C@@H](CC(C)C)C(=O)N[C@@H](CCCCN)C(N)=O [Peptide V] (H-[βAla]KWMKLLKKILK-NH2) |  | 7,0 µmol.l^-1 | 2,8 µmol.l^-1 | 10,0 µmol.l^-1 | 5,7 µmol.l^-1 | 11,3 µmol.l^-1 |  |  | 2,8 µmol.l^-1 | 59,0 µmol.l^-1 | 270 µmol/L | 6,8 µmol.l^-1 | 11,3 µmol.l^-1 | 1,8 µmol.l^-1 |  |  |  |  | 4,0 CFU/hole | 2,0x10^5 CFU/hole |
